We go through two molecules from patent US20240400606A1, “SMALL MOLECULE ACTIVATORS OF THE IMMUNE SYSTEM” (THE BOARD OF TRUSTEES OF THE UNIVERSITY OF ILLINOIS, priority 2021, published 2024).

“Also recorded” adds a separate entry of the source.

For data set [1], the system named is whole cell CS levels in T47D. Nature of the data set: Whole cell cholesterol sulfate quantification, T47D. The conditions noted are these: 6.25 μM, 72 hours. It counts as cell-based. The protocol:
General Whole Cell Cholesterol Sulfate Quantification. 60×15 mm tissue culture dishes were seeded with MCF-7 at 2×10^6 cells/dish or T47D at 1×10^6 cells per dish, 5 mL total media volume, and allowed to adhere overnight. Compounds of interest were dissolved in DMSO. Cells were treated with 25 μL 1.25 mM compound of interest stock (6.25 μM final compound concentration, 0.5% final DMSO concentration) or DMSO for 72 hours. To harvest, media was aspirated, and cells were washed once with PBS before detaching with trypsin. Trypsin was quenched with media. Cells were centrifuged at 300 xg for 3 minutes and supernatant was discarded. Cells were resuspended in media and counted using a Countess 3 automated cell counter (Thermo Fisher Scientific). 1.5×10^6 cells were collected, washed twice with 1 mL PBS, then pelleted and stored at −80° C. until lysis. […] 100 μL of supernatant was transferred to an empty Eppendorf tube and submitted for LC-MS/MS quantification (UIUC Metabolomics Center), along with 5 mM cholesterol sulfate sodium salt standard.
General LC-MS/MS Quantification Method. Both DHEAS and CS samples were analyzed by 6500 QTRAP (Sciex, Redwood City, CA) liquid chromatography-tandem mass spectrometry. […] Cholesterol-sulfate and DHEA-sulfate were detected by multiple reaction monitoring (MRM) at m/z 465→97.0 and 367.0→97.0 respectively. […]

For data set [2], the system named is STS and SULT2B1b levels in MCF-7. Nature of the data set: Western blot of STS and SULT2B1b after treatment, MCF-7. It counts as cell-based, human. As to conditions: MCF-7, 6.25 μM, 72 hours. The protocol: (§1) Western Blot Analysis. Cells were lysed using RIPA buffer containing phosphatase (BioVision) and protease inhibitor cocktail (Calbiochem). Protein concentrations were determined using the BCA assay (Pierce). Lysates containing 15 μg of protein were loaded onto 4-20% gradient gels (BioRad), and SDS-PAGE was run. Proteins were then transferred onto membrane (PVDF Millipore) for Western Blot analysis. Blots were blocked with BSA solution (2 g in 40 mL TBST) for one hour followed by primary antibody addition and incubation overnight (using manufacturer's recommended dilutions). Following overnight incubation, blots were washed with TBST, and incubated with HRP-linked secondary antibody for 1 hour in TBST. Blots were washed, then imaged with ChemiDoc after incubation with SuperSignal West Pico Solution following manufacturer's procedures.
A general note: In western blotting, separated proteins are transferred to a membrane and probed.

Data set [3] relates to STS and SULT2B1b levels in T47D. Kind of data set: Western blot of STS and SULT2B1b after treatment, T47D. In kind it is cell-based. The conditions noted are these: 6.25 μM, 72 hours. As to the method: as §1
For data set [4] the following is noted: in vivo, ip. The protocol:
Tolerability Studies. Three female C57/BL6 mice were administered single IP doses (formulated in 50% DMSO/50% Peg400) of compound (2). Compound was formulated at a concentration of 20-40 mg/mL depending on dose. Mice were injected with 100 μL formulated compound. Mouse weight and lethality were tracked as indicators of compound tolerability. Tolerability of vehicle had been previously assessed.
Maximum tolerated dose mouse studies: Compound (3) was formulated in 50% DMSO, 50% Peg400 at 20 mg/mL (for 100 mg/kg injection), 25 mg/mL (for 125 mg/kg injection), or 40 mg/mL (for 200 mg/kg injection). Compound was injected intraperitoneally into female C57BL/6 mice, and the mice were monitored for signs of toxicity.

Data set [5] in a line: Pharmacokinetic mouse studies. The conditions noted are these: for concentration in the serum: mice. In kind it is in vivo, C57BL/6 mice. The protocol: Pharmacokinetic Analysis. […] Whole blood was collected, centrifuged, and EDTA serum separated for quantification by […] methods (UIUC Metabolomics Center, Urbana, IL).
Pharmacokinetic mouse studies: Compound (3) was formulated in 50% DMSO, 50% Peg400 at 40 mg/mL (for 200 mg/kg injection), Compound was injected intraperitoneally into female C57BL/6 mice (3 per time point). Blood from the mice were harvested at each time point. Serum was separated and concentration in the serum was quantified by LC-MS/MS.

Data set [6] addresses human carbonic anhydrase II (hCAII) (Homo sapiens (Human), UniProt P00918). Nature of the data set: Human carbonic anhydrase II assay. In kind it is biochemical. As to conditions: concentrations up to 200 μM; listed as IB:10:D. The protocol: Human Carbonic Anhydrase II Assay. Stock solutions of compound of interest (in DMSO), acetazolamide (10 μM in DMSO), hCAII solution (65 μL of 33 μM stock to 1.935 mL hCAII assay buffer to make 1 μM hCAII solution), and 4-nitrophenylacetate (4-NPA; 60 μL of 100 mM DMSO stock to 3 mL hCAII assay buffer to make 2 mM 4-NPA solution). To the wells of a 384-well clear bottom plate were added 1 μL compound of interest or 10 μM acetazolamide. 20 μL of hCAII solution was added to all wells except no enzyme control well, in which case 20 μL hCAII assay buffer was added instead. Plates were incubated for 11 minutes at room temperature before addition of 4-NPA solution to all wells. Absorbance at 348 nm was read every 10 seconds of 11 minute total run time. Three technical replicates were assessed per plate. Controls: hCAII+4-NPA (DMSO added in place of compound of interest, DMSO control), 4-NPA background (no enzyme, DMSO added in place of compound of interest, 4-NPA control), hCAII+4-NPA+acetazolamide (acetazolamide added in place of compound of interest, known hCAII inhibitor).
Percent inhibition calculated as: 100−[100×[(AbSaverage, compound of interest−AbSaverage, 4-NPA)/(AbSaverage, DMSO−AbSaverage, 4-NPA)]].

[7] abbreviates: female, mouse, 200 mg/kg, C57BL/6 mice, single IP dose, serum.

Usually AUC stands for the area under the concentration-time curve, a measure of exposure. Usually Cmax stands for the peak of the concentration-time curve. By MRT is commonly meant the average time that molecules of a dose stay in the body. By half-life is commonly meant the time needed for the level to fall by half in the phase considered. Read a low half-life as fast loss. On to `C[C@]12CCC(=O)N(Cc3ccc(Br)cc3)C1=CC[C@@H]1[C@@H]2C(=O)C[C@]2(C)C(=O)CC[C@@H]12` [Compound 3, (4aR,4bS,6aS,9aS,9bS)-1-(4-bromobenzyl)-4a,6a-dimethyl-3,4,4a,6,6a,8,9,9a,9b,10-decahydro-1H-indeno[5,4-f]quinoline-2,5,7(4bH)-trione], for which, in data set [1], the “whole cell CS levels vs DMSO” value is given as “confirmed”. Further, in data set [2], the “STS and SULT2B1b levels after treatment” value is listed as “unchanged”. Also, in data set [3], the “STS and SULT2B1b levels after treatment” value is “unchanged”. Besides, the tolerated dose result in data set [4] (female, C57BL/6, mouse) is “up to 200 mg/kg”. Also, the tolerability result in data set [4] (mouse, 200 mg/kg) is “not tolerated”. In data set [5] (C57BL/6 mice, single IP dose, serum), the CL was 5.434 L/h/kg. In data set [5] (setting [7]), the AUC is 36.8 µg·h/mL, the Cmax was 19.8 µg/mL, the MRT was 1.86 h and the half-life was found to be 1.29 h. Besides, in data set [5] (200 mg/kg intraperitoneally), the “concentration in the serum” value is roughly 50 µM. Also, the “concentration in the serum” value in data set [5] (stated as 150 mg/kg IP) is roughly 50 µM.

As for `C[C@]12CCC(=O)N(Cc3ccc(Cl)cc3)C1=CC[C@@H]1[C@@H]2C(=O)C[C@]2(C)C(=O)CC[C@@H]12` [Compound 1, (4aR,4bS,6aS,9aS,9bS)-1-(4-chlorobenzyl)-4a,6a-dimethyl-3,4,4a,6,6a,8,9,9a,9b,10-decahydro-1H-indeno[5,4-f]quinoline-2,5,7(4bH)-trione], the “inhibition of hCAII” value in data set [6] is given as “does not inhibit; also recorded: No inhibition”.
